The numbers were not newly measured in patent publication US20070154432A1, “Compositions and methods for hair growth” (priority 2005, published 2007), which cites them from elsewhere.

The test system of one data set is 5α-alpha reductase. As to conditions: individually shown / studies have suggested.
For data set [1] the following is noted: 200 individual; published in the Federal Register.

Consider `CC/C=C\C/C=C\C/C=C\CCCCCCCC(=O)O` [ALA, Alpha Linolenic Acid], for which, in the data set on 5α-alpha reductase, the “inhibition of 5α-alpha reductase (in words)” value is listed as “inhibit”. Turning to `NC(=O)NC1NC(=O)NC1=O` (centres unmarked) [Allantoin, allantoin], the “toxicity, irritation and allergenicity by Schwartz patch test” value in data set [1] was “nontoxic, nonirritating and non-allergenic”.

In the case of `CCCCC/C=C\C/C=C\C/C=C\CCCCC(=O)O` [GLA, Gamma Linolenic Acid], the “inhibition of 5α-alpha reductase (in words)” value in the data set on 5α-alpha reductase is recorded as “inhibit”. Regarding `CCCCC/C=C\C/C=C\CCCCCCCC(=O)O` [linoleic acid, Linoleic Acid], in the data set with 5α-alpha reductase, the “inhibition of 5α-alpha reductase (in words)” value is on record as “inhibit”. Turning to `[Zn]` [zinc], in the data set with 5α-alpha reductase, the “inhibition of 5α-alpha reductase (in words)” value is on record as “inhibits”.
